Measured values as given in ChEMBL document CHEMBL1641471, “Psammaplysin H, a new antimalarial bromotyrosine alkaloid from a marine sponge of the genus Pseudoceratina” (Bioorg Med Chem Lett, 2011).

Tests used:
HepG2 = experiment: Cytotoxicity against human HepG2 cells after 72 hrs by Alamar Blue assay; assay type: cell-based; conditions: HepG2, 72 h
HEK293 = experiment: Cytotoxicity against HEK293 cells after 72 hrs by Alamar Blue assay; assay type: cell-based; conditions: Homo sapiens, HEK293, 72 h
[1] = Selectivity index, ratio of IC50 for chloroquine-sensitive Plasmodium falciparum 3D7 to IC50 for HEK293 cells
[2] = Cytotoxicity against HEK293 cells assay at 40 uM after 72 hrs by Alamar Blue assay; assay type: cell-based; conditions: human, read-out: INH
[3] = Cytotoxicity against human HepG2 cells assay at 40 uM after 72 hrs by Alamar Blue assay; assay type: cell-based; conditions: read-out: INH
[4] = Selectivity index, ratio of IC50 for chloroquine-sensitive Plasmodium falciparum 3D7 to IC50 for human HepG2 cells
Plasmodium falciparum = experiment: Antimalarial activity against chloroquine-sensitive Plasmodium falciparum 3D7 ring-stage infected in human erythrocytes after 48 hrs by [3H]hypoxanthine assay; assay type: functional, organism-based

SMILES	IC50 (HepG2) [µM]	IC50 (HEK293) [µM]	Ratio IC50 [1]	cytotoxicity at 72 h, 40 µM [2] [%]	cytotoxicity at 72 h, 40 µM [3] [%]	Ratio IC50 [4]	IC50 (Plasmodium falciparum) [nM]
CCN(CC)CCCC(C)Nc1ccnc2cc(Cl)ccc12 (centres undefined) [CHLOROQUINE]	12.9	48	–	–	–	–	–
COC1C(Br)=CO[C@@]2(C=C1Br)ON=C(C(=O)NCCCOc1c(Br)cc(CC[N+](C)(C)C)cc1Br)[C@@H]2O.O=C([O-])C(F)(F)F (some centres undefined) [PSAMMAPLYSIN H]	> 40	> 40	>97	35	33	>97	410
CNCCc1cc(Br)c(OCCCNC(=O)C2=NO[C@@]3(C=C(Br)C(OC)C(Br)=CO3)[C@H]2O)c(Br)c1 (some centres undefined) [PSAMMAPLYSINS F]	3.7	10.9	5	–	–	2	1920
COC1C(Br)=CO[C@@]2(C=C1Br)ON=C(C(=O)NCCCOc1c(Br)cc(CCN(C)C(N)=O)cc1Br)[C@@H]2O (some centres undefined) [PSAMMAPLYSINS G]	17.4	18.7	3	–	–	3	5220
